The target of data set [1] is T1, serotonin receptor 5-HT2C (Homo sapiens, UniProt P28335).
T1 construct: purchased CEREP (contract assay) 0137, 1003
T1 sequence (P28335 33-458): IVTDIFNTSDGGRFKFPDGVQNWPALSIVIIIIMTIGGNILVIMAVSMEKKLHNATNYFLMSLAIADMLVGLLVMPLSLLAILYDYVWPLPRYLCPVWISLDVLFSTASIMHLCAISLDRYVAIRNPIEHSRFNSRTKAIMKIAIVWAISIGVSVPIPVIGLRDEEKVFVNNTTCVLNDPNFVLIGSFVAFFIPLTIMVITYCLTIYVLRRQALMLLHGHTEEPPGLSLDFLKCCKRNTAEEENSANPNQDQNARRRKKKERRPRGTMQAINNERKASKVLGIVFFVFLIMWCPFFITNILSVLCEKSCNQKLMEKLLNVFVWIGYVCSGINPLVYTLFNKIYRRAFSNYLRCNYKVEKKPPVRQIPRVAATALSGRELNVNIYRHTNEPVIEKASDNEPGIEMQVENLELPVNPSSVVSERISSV
Put plainly: CEREP 5-HT2C (h) (agonist radioligand). The data set is classed as binding. The note with it: BT13 1 μM, Cat. No. 1003, average of duplicate, read-out: Percentage of inhibition/potentiation from control.

Data set [2] is described as follows: Plasma stability, mouse plasma. The data set is classed as in vitro ADME. As to conditions: read-out: Plasma stability (% remaining after 1 h).
Another data set concerns the target adenosine receptor A1 (Homo sapiens, UniProt P30542). Put plainly: CEREP A1 (h) (antagonist radioligand). The format is binding. As to conditions: BT13 1 μM; Cat. No. 0002; average of duplicate; read-out: Percentage of inhibition/potentiation from control.
For a further data set, the target named is T2, CYP2C9 (Homo sapiens, UniProt P11712).
T2 construct: Cyathus Exquirere (contract laboratory)
Put plainly: CYP inhibition, fluorescent assay. The format is biochemical. As to conditions: read-out: Inhibition of CYP isoforms (IC50), CYP2C9.

Data set [3] deals with Ca2+ channel (L, diltiazem site) (Rattus norvegicus, UniProt P22002). Put plainly: CEREP Ca2+ channel (L, diltiazem site) (benzothiazepines) (antagonist radioligand). The format is binding. The note with it: BT13 1 μM; Cat. No. 0162; average of duplicate; read-out: Percentage of inhibition/potentiation from control.
For data set [4], the target named is T3, opioid receptor delta (DOP) (Mus musculus, UniProt P32300).
T3 construct: purchased CEREP (contract assay) 2568
Nature of the data set: CEREP Delta (DOP) (agonist effect). The data set is classed as cell-based. The note with it: BT13 1 μM, Cat. No. 2568, average of duplicate, read-out: Percentage of inhibition/potentiation from control.

A further data set has as its target T4, CYP2D6 (Homo sapiens, UniProt P10635).
T4 construct: Cyathus Exquirere (contract laboratory)
Nature of the data set: CYP inhibition, fluorescent assay. The format is biochemical. As to conditions: read-out: Inhibition of CYP isoforms (IC50), CYP2D6.

For data set [5], the system named is Akt and Erk phosphorylation in parental MG87 cells. Nature of the data set: Erk1/2 and Akt phosphorylation assay in parental MG87 cells. The data set is classed as cell-based, murine. As to conditions: BT13 10–100 μM.
Data set [6] addresses norepinephrine transporter (Homo sapiens, UniProt P23975). Nature of the data set: biochemical. As to conditions: read-out: Percentage of inhibition/potentiation from control.
Data set [7] has as its system adrenergic receptor alpha 2. Nature of the data set: CEREP Alpha 2 (non-selective; antagonist radioligand). As to conditions: BT13 1 μM; Cat. No. 0011; average of duplicate. The format is binding.
In data set [8] the test system is Akt and Erk phosphorylation (RET downstream targets). Put plainly: Erk1/2 and Akt phosphorylation assay in MG87RET fibroblasts. The data set is classed as cell-based, murine. The note with it: 25–50 μM; in the presence and absence of GFRα3 co-receptor.
Data set [9] concerns the target T5, Protein Tyrosine Phosphatase, PTPRC (CD45) (Homo sapiens, UniProt P08575).
T5 construct: purchased CEREP (contract screening, standard company protocols) 3956
Put plainly: CEREP Protein Tyrosine Phosphatase, PTPRC (CD45). The data set is classed as biochemical. The note with it: BT13 1 μM; Cat. No. 3956; average of duplicate; read-out: Percentage of inhibition/potentiation from control.

Data set [10] concerns adrenergic receptor alpha 1. Put plainly: CEREP Alpha 1 (non-selective; antagonist radioligand). The data set is classed as binding. As to conditions: BT13 1 μM; Cat. No. 0008; average of duplicate.
Data set [11] has as its system rats with spinal nerve ligation (L5/L6). Nature of the data set: Spinal nerve ligation (Chung's) model of experimental neuropathy, von Frey test. As to conditions: for increase of ipsilateral paw withdrawal threshold (PWT): von Frey, day 12 post-surgery.
A further data set concerns the target cannabinoid receptor CB1 (Homo sapiens, UniProt P21554). Nature of the data set: CEREP CB1 (h) (agonist radioligand). The format is binding. As to conditions: BT13 1 μM; Cat. No. 0036; average of duplicate; read-out: Percentage of inhibition/potentiation from control.
A further data set has as its target 5-HT transporter (Homo sapiens, UniProt P31645). Put plainly: biochemical. As to conditions: read-out: Percentage of inhibition/potentiation from control.
Another data set relates to neurotensin receptor NT. Put plainly: CEREP NT (non-selective; agonist radioligand). The data set is classed as binding. The note with it: BT13 1 μM; Cat. No. 0465; average of duplicate.
Data set [12] addresses T6, adrenergic receptor beta 3 (Homo sapiens, UniProt P13945).
T6 construct: purchased CEREP (contract assay) Cat# 3963
Put plainly: CEREP Beta 3 (non-selective; antagonist radioligand). The format is binding. As to conditions: BT13 1 μM; Cat. No. 3963; average of duplicate; read-out: Percentage of inhibition/potentiation from control.

A value given as a limit tells only on which side of the number the result lay.

Ca2+ channel (L, diltiazem site), sequence (P22002 whole entry): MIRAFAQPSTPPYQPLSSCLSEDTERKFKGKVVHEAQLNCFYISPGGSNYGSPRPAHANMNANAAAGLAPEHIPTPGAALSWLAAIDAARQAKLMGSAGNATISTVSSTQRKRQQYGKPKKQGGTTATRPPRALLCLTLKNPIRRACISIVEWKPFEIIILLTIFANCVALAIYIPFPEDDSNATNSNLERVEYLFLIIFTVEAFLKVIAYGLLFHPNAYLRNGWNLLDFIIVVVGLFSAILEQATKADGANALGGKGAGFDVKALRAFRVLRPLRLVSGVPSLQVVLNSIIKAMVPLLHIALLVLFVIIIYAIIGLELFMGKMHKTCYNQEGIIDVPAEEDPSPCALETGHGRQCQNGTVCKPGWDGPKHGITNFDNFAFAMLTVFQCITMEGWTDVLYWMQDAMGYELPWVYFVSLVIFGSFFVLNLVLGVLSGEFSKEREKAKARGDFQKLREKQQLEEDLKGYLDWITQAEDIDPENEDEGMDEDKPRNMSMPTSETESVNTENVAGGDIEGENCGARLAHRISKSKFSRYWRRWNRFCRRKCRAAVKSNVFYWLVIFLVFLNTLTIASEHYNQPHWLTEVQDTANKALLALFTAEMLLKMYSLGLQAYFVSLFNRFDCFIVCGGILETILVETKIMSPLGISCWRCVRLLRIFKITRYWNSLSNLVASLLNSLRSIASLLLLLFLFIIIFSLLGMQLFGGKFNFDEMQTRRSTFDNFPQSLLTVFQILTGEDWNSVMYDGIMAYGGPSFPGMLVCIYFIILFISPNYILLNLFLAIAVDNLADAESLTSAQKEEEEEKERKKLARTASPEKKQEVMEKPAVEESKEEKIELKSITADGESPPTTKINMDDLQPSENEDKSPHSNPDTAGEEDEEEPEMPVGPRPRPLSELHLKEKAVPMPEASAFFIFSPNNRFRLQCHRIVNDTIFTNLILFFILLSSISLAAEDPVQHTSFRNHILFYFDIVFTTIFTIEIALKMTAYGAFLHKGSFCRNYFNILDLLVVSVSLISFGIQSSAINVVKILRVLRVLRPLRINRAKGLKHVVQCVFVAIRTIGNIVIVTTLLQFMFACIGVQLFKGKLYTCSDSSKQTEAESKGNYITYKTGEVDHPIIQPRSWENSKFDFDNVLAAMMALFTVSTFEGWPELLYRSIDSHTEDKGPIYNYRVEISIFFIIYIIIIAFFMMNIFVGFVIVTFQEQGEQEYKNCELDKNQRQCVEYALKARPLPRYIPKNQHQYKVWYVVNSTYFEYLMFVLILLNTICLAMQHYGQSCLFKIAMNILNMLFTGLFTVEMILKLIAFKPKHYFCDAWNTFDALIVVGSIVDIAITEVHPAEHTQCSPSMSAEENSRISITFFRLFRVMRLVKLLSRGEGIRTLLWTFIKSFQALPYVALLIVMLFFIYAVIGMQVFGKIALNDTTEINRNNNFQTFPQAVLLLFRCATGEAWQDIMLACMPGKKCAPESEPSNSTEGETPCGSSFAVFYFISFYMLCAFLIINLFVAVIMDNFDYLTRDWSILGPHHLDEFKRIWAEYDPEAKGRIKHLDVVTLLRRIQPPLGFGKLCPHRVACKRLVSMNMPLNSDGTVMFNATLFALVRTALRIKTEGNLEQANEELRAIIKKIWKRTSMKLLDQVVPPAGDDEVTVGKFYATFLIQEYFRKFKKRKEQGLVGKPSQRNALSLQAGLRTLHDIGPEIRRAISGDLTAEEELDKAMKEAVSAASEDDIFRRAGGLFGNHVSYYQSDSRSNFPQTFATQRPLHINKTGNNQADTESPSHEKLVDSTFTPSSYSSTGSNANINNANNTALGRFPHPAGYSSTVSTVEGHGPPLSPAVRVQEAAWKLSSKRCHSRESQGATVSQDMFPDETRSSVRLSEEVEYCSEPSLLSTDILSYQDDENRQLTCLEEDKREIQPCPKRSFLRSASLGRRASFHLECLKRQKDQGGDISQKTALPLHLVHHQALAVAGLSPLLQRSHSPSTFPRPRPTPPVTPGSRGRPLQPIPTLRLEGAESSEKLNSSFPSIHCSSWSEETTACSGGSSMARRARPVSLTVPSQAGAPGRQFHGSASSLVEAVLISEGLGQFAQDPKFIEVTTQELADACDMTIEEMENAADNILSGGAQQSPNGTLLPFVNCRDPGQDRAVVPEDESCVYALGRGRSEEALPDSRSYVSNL
cannabinoid receptor CB1, sequence (P21554 whole entry): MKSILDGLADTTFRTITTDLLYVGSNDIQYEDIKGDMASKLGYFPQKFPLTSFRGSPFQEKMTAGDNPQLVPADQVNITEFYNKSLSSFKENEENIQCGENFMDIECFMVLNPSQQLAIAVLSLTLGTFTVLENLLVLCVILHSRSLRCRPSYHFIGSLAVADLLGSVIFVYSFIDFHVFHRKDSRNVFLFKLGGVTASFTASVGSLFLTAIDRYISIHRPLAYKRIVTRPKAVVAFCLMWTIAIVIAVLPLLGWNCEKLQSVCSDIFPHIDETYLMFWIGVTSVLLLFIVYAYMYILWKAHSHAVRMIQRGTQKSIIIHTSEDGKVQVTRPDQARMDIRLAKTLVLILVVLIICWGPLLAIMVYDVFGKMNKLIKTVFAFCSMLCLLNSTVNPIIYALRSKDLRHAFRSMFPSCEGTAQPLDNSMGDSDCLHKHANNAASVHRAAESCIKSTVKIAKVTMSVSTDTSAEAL
T6 sequence (P13945 whole entry): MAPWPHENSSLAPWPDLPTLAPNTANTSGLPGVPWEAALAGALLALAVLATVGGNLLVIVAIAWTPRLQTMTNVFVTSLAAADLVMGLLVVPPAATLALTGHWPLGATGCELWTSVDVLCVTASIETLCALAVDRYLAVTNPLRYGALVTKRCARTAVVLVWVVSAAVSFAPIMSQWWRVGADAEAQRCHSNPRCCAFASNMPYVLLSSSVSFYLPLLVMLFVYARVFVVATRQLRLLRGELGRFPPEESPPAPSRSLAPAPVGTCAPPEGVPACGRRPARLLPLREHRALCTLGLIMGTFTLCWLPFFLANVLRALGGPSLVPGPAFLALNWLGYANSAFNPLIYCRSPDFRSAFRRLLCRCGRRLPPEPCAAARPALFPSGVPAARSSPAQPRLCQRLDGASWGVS
T3 sequence (P32300 whole entry): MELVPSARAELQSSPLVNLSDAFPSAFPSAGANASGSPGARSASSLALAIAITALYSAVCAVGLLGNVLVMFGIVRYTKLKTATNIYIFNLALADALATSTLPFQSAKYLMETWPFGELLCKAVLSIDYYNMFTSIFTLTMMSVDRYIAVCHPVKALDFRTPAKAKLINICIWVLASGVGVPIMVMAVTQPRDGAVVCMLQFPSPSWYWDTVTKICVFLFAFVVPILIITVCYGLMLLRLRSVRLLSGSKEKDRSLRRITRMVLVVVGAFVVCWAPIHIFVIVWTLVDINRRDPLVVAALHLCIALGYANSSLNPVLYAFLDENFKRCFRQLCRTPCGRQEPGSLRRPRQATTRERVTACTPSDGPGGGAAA
T5 sequence (P08575 26-1306): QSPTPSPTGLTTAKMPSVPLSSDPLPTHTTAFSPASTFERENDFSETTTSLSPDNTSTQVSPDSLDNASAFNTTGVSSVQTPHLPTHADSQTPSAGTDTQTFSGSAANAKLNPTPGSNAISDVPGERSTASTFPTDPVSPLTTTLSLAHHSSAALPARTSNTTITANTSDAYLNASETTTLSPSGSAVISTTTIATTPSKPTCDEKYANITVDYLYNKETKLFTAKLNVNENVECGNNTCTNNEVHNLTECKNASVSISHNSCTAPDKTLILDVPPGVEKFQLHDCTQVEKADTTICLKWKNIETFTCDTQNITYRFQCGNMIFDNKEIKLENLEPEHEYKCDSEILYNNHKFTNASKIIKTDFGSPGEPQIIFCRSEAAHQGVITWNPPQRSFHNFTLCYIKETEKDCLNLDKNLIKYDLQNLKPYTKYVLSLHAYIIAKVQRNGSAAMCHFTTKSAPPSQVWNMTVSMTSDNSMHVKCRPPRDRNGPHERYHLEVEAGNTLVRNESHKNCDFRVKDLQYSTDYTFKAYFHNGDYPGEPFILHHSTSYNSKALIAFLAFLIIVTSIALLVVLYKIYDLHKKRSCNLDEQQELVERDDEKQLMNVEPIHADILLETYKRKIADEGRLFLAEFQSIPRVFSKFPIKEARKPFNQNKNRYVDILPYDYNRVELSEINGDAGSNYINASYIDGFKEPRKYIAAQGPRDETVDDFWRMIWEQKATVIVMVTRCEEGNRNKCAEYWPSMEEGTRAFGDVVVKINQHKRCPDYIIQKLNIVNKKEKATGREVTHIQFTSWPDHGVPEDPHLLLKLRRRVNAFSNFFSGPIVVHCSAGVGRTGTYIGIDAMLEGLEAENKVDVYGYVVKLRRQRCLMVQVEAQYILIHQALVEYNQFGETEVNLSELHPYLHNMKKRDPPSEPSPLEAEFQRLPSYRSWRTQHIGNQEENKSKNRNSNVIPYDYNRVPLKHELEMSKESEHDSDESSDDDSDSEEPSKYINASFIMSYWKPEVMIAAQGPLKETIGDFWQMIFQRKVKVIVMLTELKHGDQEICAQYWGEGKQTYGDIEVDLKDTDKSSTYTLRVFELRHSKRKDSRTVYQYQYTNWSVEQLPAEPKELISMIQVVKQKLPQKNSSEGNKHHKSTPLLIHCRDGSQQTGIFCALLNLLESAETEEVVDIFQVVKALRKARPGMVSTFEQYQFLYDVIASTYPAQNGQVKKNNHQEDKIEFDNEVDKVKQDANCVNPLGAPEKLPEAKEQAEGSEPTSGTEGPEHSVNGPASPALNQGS
adenosine receptor A1, sequence (P30542 whole entry): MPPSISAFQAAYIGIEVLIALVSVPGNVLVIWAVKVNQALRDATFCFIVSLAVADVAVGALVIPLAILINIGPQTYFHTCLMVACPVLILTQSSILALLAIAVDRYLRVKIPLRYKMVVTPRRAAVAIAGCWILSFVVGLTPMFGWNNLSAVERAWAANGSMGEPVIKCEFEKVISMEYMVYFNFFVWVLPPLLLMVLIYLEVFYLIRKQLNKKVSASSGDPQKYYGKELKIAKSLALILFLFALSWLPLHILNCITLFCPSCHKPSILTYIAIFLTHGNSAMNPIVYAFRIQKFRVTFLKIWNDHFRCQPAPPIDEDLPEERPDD

On to `CCN(CC)S(=O)(=O)c1ccc(OC)c(N2CCN(C(=O)c3ccc(F)cc3C(F)(F)F)CC2)c1` [BT13], for which the inhibition at 1 µM in data set [1] was 6%; on adenosine receptor A1, 5%; in data set [3] it was 16%; in [4] it was -5.2%; in data set [6] it was -5%; in [9] it was -3%. Moreover, the inhibition at 1 µM on cannabinoid receptor CB1 is 9%; on 5-HT transporter it was 0%; in [12], -5%. In [2], the fraction remaining at 1 h turned out to be 110 ± 3.1%. The IC50 on CYP2C9 and at CYP2D6 was greater than 100 µM in each case. For the same compound, the “Akt and Erk phosphorylation” value in data set [5] is listed as “no Akt or Erk phosphorylation was observed”. For the same compound, the “Percentage of inhibition/potentiation from control” value in [7] is given as −6%; in [10], 2%; in the data set with neurotensin receptor NT, −6%. For the same compound, the “phosphorylation of RET downstream targets Akt and Erk” value in data set [8] is given as “elicited phosphorylation”. The “increase of ipsilateral paw withdrawal threshold (PWT)” value in data set [11] (BT13 20 mg/kg s.c. on days 1, 3, 5, 8, 10, 12) was determined as 2.5 times; in [11] (BT13 25 mg/kg s.c. on days 1, 3, 5, 8, 10, 12), 2.9 times. Moreover, the “effect on contralateral PWTs” value in data set [11] (repeated post-surgical s.c. administration of BT13) is “did not influence”.

Source of the values: publication PMC5478727, “A Novel Small Molecule GDNF Receptor RET Agonist, BT13, Promotes Neurite Growth from Sensory Neurons in Vitro and Attenuates Experimental Neuropathy in the Rat” (Frontiers in Pharmacology, 2017).
